Laboratory results as given in patent US20240277744A1, “TREATMENT OF CHEMORESISTANT CANCER CELLS” (Cornell University, priority 2023, published 2024).
Where a name gives a salt, the structure may show the parent alone.

Key:
SW1990 xenograft tumors [1] = experiment: Luciferase-labeled SW1990 xenograft in nude mice; type: in vivo
Description: CYM suppresses TRA-1-60 expression and blocks tumor growth in vivo. Next it was sought to validate the effects of CYM in vivo, using a xenograft model with luciferase-labeled SW1990 cells propagated in nude mice. Tumor-harboring mice were separated into 4 groups and treated with PBS (control), 2 mg/kg CYM, 50 mg/kg GEM, or 2 mg/kg CYM plus 50 mg/kg GEM through intraperitoneal injections twice per week. Luciferase intensity was quantified twice per week and normalized with the value obtained from the starting day. […] Consistent with imaging, of the four groups, mice treated with GEM plus CYM generated xenograft tumors with the smallest size (FIG. 6C) and weight (FIG. 6D).
(§1) Tissue samples were fixed with 4% paraformaldehyde overnight at 4° C., washed with 70% ethanol and then embedded in paraffin. After De-paraffin and rehydration, antigen retrieval was preceded in hot antigen retrieving buffer with a normal-pressure steamer for 30 min. blocking was proceeded 1 hour at room temperature in PBS containing 1% horse serum. Primary antibody was stained overnight at 4° C. in PBS plus 0.5% Triton X-100 and 5% horse serum. Secondary antibody was incubated at room temperature for 1.5 hours.
Mouse Procedures. To assess in vivo effects of Cymarin (CYM), Luciferase-labelled SW1990 cells were transplanted to nude mice subcutaneously. Each mouse received four injections (5×10^5 cells/site). 12 days later, mice were randomly separated into 4 groups and treated with PBS (control), GEM (50 mg/kg bodyweight), CYM (2 mg/kg bodyweight) or GEM (50 mg/kg bodyweight) plus CYM (2 mg/kg bodyweight) twice weekly via intraperitoneal injection. Image acquisition was performed twice weekly with Xtreme Optical and X-ray small animal imaging system. Luciferin potassium salt (Regis), substrate of luciferase, was applied at 2 mg/25 g bodyweight in 150 μl PBS. Isoflurane (Henry Schein) was used for anesthesia during imaging.

[2] = tested on: primary human xenograft tumor; experiment: Patient derived pancreatic adenocarcinoma xenograft in nude mice; type: in vivo; conditions: 50 mg/kg GEM twice weekly, one month; not in control tumors
Description: To examine whether TRA-1-60 expression correlates with chemotherapy treatment in primary tumors, a human pancreatic adenocarcinoma specimen was freshly collected after surgery, transplanted to nude mice and expanded subcutaneously. Mice carrying the primary human xenograft tumor were separated into two groups: one group was treated with 50 mg/kg GEM twice weekly while the other group received the same volume of PBS as control. After one month, xenograft tumors were stained with TRA-1-60 antibody. TRA-1-60 staining was detected in GEM-treated xenograft tumors but not control xenograft tumors (FIG. 7C, D), confirming that TRA-1-60 expression is positively correlated with chemoresistance.
as §1

HCT116 cell line = experiment: Flow cytometry of TRA-1-81+ cells; type: cell-based; conditions: HCT116; flow cytometry
Description: (§2) Flow cytometry. TRA-1-60 PerCP-efluor710 (eBioscience, 1:50) and TRA-1-81 PE (eBioscience, 1:100) were used. Cells were blocked with 5% FBS plus mouse IgM isotype control antibody (eBioscience, 1:100) at room temperature for 15 min, then stained on ice for 30 min. Stained cells were resuspended in PBS containing 300 nM DAPI and proceeded to analysis or sorting. Cell apoptosis was analyzed with FITC-AnnexinV labeling reagent (BD). Flow cytometry analysis was carried out on BD FACS Calibur with FlowJo 9.8 software. Sorting was performed with FACSVantage SE (Becton Dickinson).

TRA-1-81+ SW1990 cells = experiment: Flow cytometry of TRA-1-81+ cells; type: cell-based; conditions: SW1990; 5 days; GEM 50, 100 or 250 nM; flow cytometry
Description: as §2

HT29 cell line = experiment: Flow cytometry of TRA-1-81+ cells; type: cell-based
Description: as §2

A549 cell line = experiment: Flow cytometry of TRA-1-81+ cells; type: cell-based
Description: as §2

DU145 cell line = experiment: Flow cytometry of TRA-1-81+ cells; type: cell-based; conditions: DU145; flow cytometry
Description: as §2

RKO cell line = experiment: Flow cytometry of TRA-1-81+ cells; type: cell-based
Description: as §2

SW1990 cells = experiment: Cell viability (DAPI nuclei count, high content imaging); type: cell-based; conditions: Homo sapiens; parental SW1990; read-out: IC50 for GEM (viability)
Description: (§3) Cell viability, colony formation, sphere formation and growth curve. To quantify viability, cells were plated into 96-well plates (6000/well) one night before treatment. […] After fixation, cell nuclei were stained with DAPI (Invitrogen). Plates were analyzed using MetaXpress High Content Image Acquisition and Analysis System (Molecular Devices).

SW1990GR cells = experiment: as above; type: cell-based; conditions: GEM-resistant line, read-out: IC50 for GEM (viability)
Description: To establish GR cell lines, cells were first cultured with 10 nM GEM till cell growth became stable. […] Once cell growth became stable in 100 nM GEM, cells were expanded in 100 nM GEM and used in assays.
as §3

SW1990 xenograft tumors [3] = experiment: GEM-resistant SW1990 xenograft passaged in nude mice; conditions: 50 mg/kg GEM i.p. twice a week, 3 passages in vivo, vs PBS control
Description: Whether the epitope of TRA-1-60 and TRA-1-81 antibodies also enriches CCCs in vivo, with xenograft tumors in nude mice derived from SW1990 cells implanted subcutaneously, was examined. Mice carrying tumors were randomly separated into two groups: one was treated with 50 mg/kg GEM via intraperitoneal injection twice a week for 4 weeks; the other was treated with the same volume of PBS as control. After 3 passages in vivo (˜6 months), the control and GR xenograft tumors were analyzed with immunofluorescence (FIG. 1K).
as §1

TRA-1-60+ SW1990GR cells = experiment: High content screen / immunofluorescent staining of TRA-1-60+ cells; type: cell-based; conditions: SW1990GR
Description: Immunofluorescent staining. Primary antibodies were TRA-1-60 antibody (BD, 1:200), biotin conjugated TRA-1-60 antibody (eBioscience, 1:200). Secondary antibodies were donkey anti-mouse Alexa-efluor594 (Life technologies, 1:500) or streptavidin conjugated Alexa Fluor® 594 (Life technologies, 1:200).
Cells were fixed with 10% formalin for 20 min at room temperature. After 1 hour blocking in PBS with 5% horse serum and 0.3% triton-X100, primary antibodies were added to cells and incubated overnight at 4° C. Secondary antibody incubation was 1.5 hours at room temperature.
Chemical library screening. The Prestwick library of FDA approved drugs (˜1280 chemicals) plus a collection of drugs in clinical trials was used for the screen on SW1990GR cells.
For screening, SW1990GR cells were plated in 384-well plates (5000 cells/well). After overnight incubation, chemicals were added at 1 μM or 10 μM in duplicate. After 5 days of treatment, plates were stained with TRA-1-60 antibody and analyzed with MetaXpress High Content Image Acquisition and Analysis System (Molecular Devices). Wells treated with DMSO were set as control. The reduction was calculated by subtracting the percentage of TRA-1-60^+ cells in the chemical-treated wells from that of control wells. Standard deviation of TRA-1-60^+ percentage in control wells was calculated and 3-fold of this value was taken as threshold to pick up the primary hit.

Nc1ccn([C@@H]2O[C@H](CO)[C@@H](O)C2(F)F)c(=O)n1 [GEM, Gemcitabine hydrochloride]
tumor growth (luciferase intensity) (SW1990 xenograft tumors [1]; 3 weeks, i.p. twice per week, GEM 50 mg/kg, CYM 2 mg/kg): grew more slowly
percentage of TRA-1-60+ cells in xenograft tumors (SW1990 xenograft tumors [1]; GEM-treated tumors without CYM, immunofluorescence): ~27%
TRA-1-60 staining in patient derived xenograft tumors [2]: detected
TRA-1-81+ cell population after acute GEM treatment (HCT116 cell line): significant increase
TRA-1-81+ cell population after acute drug treatment (TRA-1-81+ SW1990 cells): significant increase
TRA-1-81+ cell population after acute GEM treatment (HT29 cell line): significant increase
TRA-1-81+ cell population after acute drug treatment (A549 cell line): significant increase
TRA-1-81+ cell population after acute GEM treatment (DU145 cell line): significant increase
TRA-1-81+ cell population after acute GEM treatment (RKO cell line): significant increase
IC50 (SW1990 cells): 0.0096 ± 0.0032 µM
IC50 (SW1990GR cells): 0.0594 ± 0.0053 µM
percentage of TRA-1-60+ cells in GR xenograft tumors (SW1990 xenograft tumors [3]): significantly increased

CCc1c2c(nc3ccc(OC(=O)N4CCC(N5CCCCC5)CC4)cc13)-c1cc3c(c(=O)n1C2)COC(=O)[C@]3(O)CC [CPT-11, Irinotecan hydrochloride]
TRA-1-81+ cell population after acute drug treatment (TRA-1-81+ SW1990 cells): highly enriched
TRA-1-81+ cell population after acute drug treatment (A549 cell line): significant enhancement

Nc1nc2[nH]cc(CCc3ccc(C(=O)N[C@@H](CCC(=O)O)C(=O)O)cc3)c2c(=O)[nH]1 [PMX, Pemetrexed disodium heptahydrate]
TRA-1-81+ cell population after acute drug treatment (TRA-1-81+ SW1990 cells): highly enriched
TRA-1-81+ cell population after acute drug treatment (A549 cell line): significant enhancement

C[C@@H]1O[C@@H](O[C@H]2C[C@@H](O)[C@]3(CO)[C@H]4[C@H](O)C[C@]5(C)[C@@H](C6=CC(=O)OC6)CC[C@]5(O)[C@@H]4CC[C@]3(O)C2)[C@H](O)[C@H](O)[C@H]1O [Ouabain]
validation of primary hit (TRA-1-60+ SW1990GR cells): able to be validated
